Values of other authors, collected in patent US20220127231A1, “PROCESS FOR THE PREPARTION OF AMIFAMPRIDINE PHOSPHATE” (SHILPA MEDICARE LTD, priority 2020, published 2022).

How the values were obtained:
[1] = 1% solution in water at 25° C.

- solubility in dimethyl sulfoxide (dimethyl sulfoxide): slightly soluble
- solubility in dimethylformamide (dimethylformamide): very slightly soluble
- solubility in ethanol (ethanol): very slightly soluble
- solubility in glacial acetic acid (glacial acetic acid): slightly soluble
- solubility in methanol (methanol): slightly soluble
- solubility in water (water): practically soluble
- pH of 1% solution in water [1]: 4.6±0.2
SMILES: Nc1ccncc1N [Amifampridine phosphate]
